Results as given in patent US9567345B2, “Pharmaceutically active pyrazolo-triazine derivatives” (LEAD DISCOVERY CENTER GMBH, priority 2012, dated 2017).
Read-outs that look alike come from different tables or passages of the source.

Columns and labels:
Format in all cases: biochemical
[1] = molecular target: CDK7/CycH/Mat1 (Homo sapiens, UniProt P50613); assay: CDK7 Enzymatic Activity Assay (Lance Kinase Activity Assay, FRET)
Protocol: (§1) This protocol describes how the Lance Kinase Activity Assay was performed to determine IC50 values of compounds of general formula (I) against CDK/Cyclin complexes. The principle behind this enzymatic assay is based upon the phosphorylation of the Ulight-Peptide Substrat. It is detected by using a specific EU-labeled anti-phospho peptide antibody.
(§2) Binding of an inhibitor to the kinase prevents phosphorylation of the Ulight-MBP Substrat, resulting in a loss of FRET.
CDK7 Enzymatic Activity Assay
(§3) The compounds of general formula (I) exemplary summarized in Table 1 were diluted from a 10 mM DMSO stock solution 1:10 in a total volume of 15 μl DMSO. This compound predilution was then serial diluted 1:3 over 8 steps in DMSO and briefly spun down. Each compound solution was now diluted 1:20 in Enzymatic Buffer (HEPES: 50 mM, pH: 7.5; MgCl2: 10 mM; EGTA: 1 mM; DTT: 2 mM; Tween-20: 0.01%), mixed thoroughly and spun down.
(§4) For positive controls, 2 μl of DMSO working solution were mixed with 6 μl CDK7/CycH/Mat1/substrate working solution and 2 μl ATP working solution. Positive and negative controls were calculated from at least 8 different wells. The 384 well plates were mixed in a Teleshaker plate mixer (Beckman Coulter, Brea, Calif., USA) at 2000 rpm for 40 sec, and incubated for 1 h at room temperature before addition of 10 μl LANCE Detection Buffer (1×; EDTA: […]; Eu-Anti-P-MBP: 4 nM) per well. Plates were mixed in a Teleshaker plate mixer (Beckman Coulter, Brea, Calif., USA) at 2000 rpm for 40 sec, followed by incubation with Detection Buffer for 1 h, and reading. […] IC50 values were determined from the sigmoidal dose response curves with the software Quattro Workflow (Quattro GmbH, Munich, Germany).

[2] = molecular target: CDK9/Cyclin T1 (Homo sapiens, UniProt P50750); assay: CDK9 Enzymatic Activity Assay (Lance Kinase Activity Assay, FRET); details: for IC50: Table 5B, class symbols per IC50 [nM] ranges of b581, read-out: CDK9: Selectivity of CDK7 inhibition over CDK9 inhibition
Chain of CDK9/Cyclin T1 (P50750 whole entry): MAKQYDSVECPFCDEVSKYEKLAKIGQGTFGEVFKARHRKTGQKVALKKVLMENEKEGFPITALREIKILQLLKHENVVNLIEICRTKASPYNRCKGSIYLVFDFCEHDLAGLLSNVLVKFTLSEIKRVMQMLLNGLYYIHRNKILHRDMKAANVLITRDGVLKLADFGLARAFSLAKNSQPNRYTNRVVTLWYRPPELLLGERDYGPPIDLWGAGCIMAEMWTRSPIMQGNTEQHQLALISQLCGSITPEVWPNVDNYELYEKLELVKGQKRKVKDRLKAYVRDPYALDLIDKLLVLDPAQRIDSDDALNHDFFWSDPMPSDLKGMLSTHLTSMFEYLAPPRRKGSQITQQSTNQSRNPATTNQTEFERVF
Chain of CDK9/Cyclin T1 (O60563 whole entry partner): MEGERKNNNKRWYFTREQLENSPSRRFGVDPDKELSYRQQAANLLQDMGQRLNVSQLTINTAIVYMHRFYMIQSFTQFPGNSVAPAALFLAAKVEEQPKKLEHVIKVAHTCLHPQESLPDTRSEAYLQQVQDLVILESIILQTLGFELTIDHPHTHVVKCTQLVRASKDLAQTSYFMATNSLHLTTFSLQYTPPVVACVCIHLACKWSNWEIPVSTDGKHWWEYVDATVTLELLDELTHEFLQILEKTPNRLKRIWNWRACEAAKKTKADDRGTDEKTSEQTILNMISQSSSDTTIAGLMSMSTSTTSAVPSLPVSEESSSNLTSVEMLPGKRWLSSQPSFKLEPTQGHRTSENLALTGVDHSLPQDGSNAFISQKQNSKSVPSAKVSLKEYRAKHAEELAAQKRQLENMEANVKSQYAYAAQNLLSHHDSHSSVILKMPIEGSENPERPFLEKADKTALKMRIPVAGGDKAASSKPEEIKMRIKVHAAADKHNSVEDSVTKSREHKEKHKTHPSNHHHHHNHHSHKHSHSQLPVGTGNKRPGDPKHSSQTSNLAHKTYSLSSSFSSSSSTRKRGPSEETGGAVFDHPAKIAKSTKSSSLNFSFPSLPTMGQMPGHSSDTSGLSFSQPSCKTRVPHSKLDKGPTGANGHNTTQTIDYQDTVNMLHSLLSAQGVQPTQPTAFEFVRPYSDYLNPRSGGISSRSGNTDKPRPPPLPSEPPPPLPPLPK
Protocol: as §1, §2
CDK9 Enzymatic Activity Assay
as §3
as §4, with “CDK9/cyclin T1/substrate” for “CDK7/CycH/Mat1/substrate”

[3] = molecular target: T1, CDK2/CycA (Homo sapiens, UniProt P24941); assay: CDK2 Enzymatic Activity Assay (Lance Kinase Activity Assay, FRET); details: for IC50: Table 5B, class symbols per IC50 [nM] ranges of b581, read-out: CDK2: Selectivity of CDK7 inhibition over CDK2 inhibition
T1 construct: purchased Proqinase
Protocol: as §1, §2
CDK2 Enzymatic Activity Assay
as §3
as §4, with “CDK2/CycA/substrate” for “CDK7/CycH/Mat1/substrate”, “(EDTA:” for “(1×; EDTA:”

[4] = CDK7/CycH/Mat1, 25 μM ATP final, class ranges, read-out: CDK7: IC50 [nM] for CDK7 inhibition

Chain of CDK7/CycH/Mat1 (P50613 whole entry): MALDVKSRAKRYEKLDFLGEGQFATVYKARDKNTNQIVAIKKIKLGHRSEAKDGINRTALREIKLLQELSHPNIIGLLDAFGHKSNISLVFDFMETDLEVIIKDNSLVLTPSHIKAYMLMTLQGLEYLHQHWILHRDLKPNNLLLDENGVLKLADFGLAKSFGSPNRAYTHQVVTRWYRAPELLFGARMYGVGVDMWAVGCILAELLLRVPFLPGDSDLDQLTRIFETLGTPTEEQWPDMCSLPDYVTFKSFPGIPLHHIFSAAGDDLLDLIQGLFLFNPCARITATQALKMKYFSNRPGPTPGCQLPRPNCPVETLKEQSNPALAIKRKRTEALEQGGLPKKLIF

IC50 [1, 4] | IC50 [2] | IC50 [3] | Structure (SMILES) | also measured
< 5 nM | > 2500 nM | 500 to 2500 nM | CC(C)Oc1ccccc1CNc1nc(O[C@@H]2CCNC2)nc2c(C(C)C)cnn12 [(VII-16), (R)-N-(2-isopropoxybenzyl)-8-isopropyl-2-(pyrrolidin-3-yloxy)pyrazolo[1,5-a][1,3,5]triazin-4-amine] | –
< 5 nM | > 2500 nM | 50 to 500 nM | CC(C)c1cnn2c(NCc3ccccc3-n3cccn3)nc(S[C@@H]3CCCNC3)nc12 [(X-8), (R)-N-(2-(1H-pyrazol-1-yl)benzyl)-8-isopropyl-2-(piperidin-3-ylthio)pyrazolo[1,5-a][1,3,5]triazin-4-amine] | –
< 5 nM | > 2500 nM | > 2500 nM | CC(C)c1cnn2c(NCc3ccccc3-n3cccn3)nc(N3CCC4(CCNCC4)C3)nc12 [(VIII-37), N-(2-(1H-pyrazol-1-yl)benzyl)-8-isopropyl-2-(2,8-diazaspiro[4.5]decan-2-yl)pyrazolo[1,5-a][1,3,5]triazin-4-amine] | –
5 to 10 nM | > 2500 nM | 500 to 2500 nM | CC(C)c1cnn2c(NCc3ccccc3-n3cccn3)nc(N3CCCC4(CCNCC4)C3)nc12 [(VIII-21), N-(2-(1H-pyrazol-1-yl)benzyl)-8-isopropyl-2-(2,9-diazaspiro[5.5]undecan-2-yl)pyrazolo[1,5-a][1,3,5]triazin-4-amine] | –
< 5 nM | > 2500 nM | 50 to 500 nM | CC(C)c1cnn2c(NCc3ccccc3-c3cccs3)nc(OC3CCN(C)CC3)nc12 [(VII-65), 8-isopropyl-2-((1-methylpiperidin-4-yl)oxy)-N-(2-(thiophen-2-yl)benzyl)pyrazolo[1,5-a][1,3,5]triazin-4-amine] | –
< 5 nM | 500 to 2500 nM | 50 to 500 nM | CC(C)Oc1ccccc1CNc1nc(O[C@@H]2CCCNC2)nc2c(C(C)C)cnn12 [(VII-18), (R)-N-(2-isopropoxybenzyl)-8-isopropyl-2-(piperidin-3-yloxy)pyrazolo[1,5-a][1,3,5]triazin-4-amine] | –
– | > 2500 nM | > 2500 nM | CC(C)c1cnn2c(NCc3ccccc3C(F)(F)F)nc(OC3CCN(C)CC3)nc12 [VII-058, 8-isopropyl-2-((1-methylpiperidin-4-yl)oxy)-N-(2-(trifluoromethyl)benzyl)pyrazolo[1,5-a][1,3,5]triazin-4-amine] | –
– | – | – | CN1CC[C@H](c2c(O)cc(O)c3c(=O)cc(-c4ccccc4Cl)oc23)[C@H](O)C1 [Flavopiridol, reference compound] | multiplicity of the CDK9 activity in terms of the CDK7 activity ([2]; selectivity CDK9 vs CDK7, enzymatic IC50 values): even lower than the CDK 7 activity; multiplicity of the CDK2 activity in terms of the CDK7 activity ([3]; selectivity CDK2 vs CDK7, enzymatic IC50 values): even lower than the CDK 7 activity
– | > 2500 nM | 500 to 2500 nM | CC(C)c1cnn2c(NCc3ccccc3-n3cccn3)nc(OC3CNC3)nc12 [VII-141, N-(2-(1H-pyrazol-1-yl)benzyl)-2-(azetidin-3-yloxy)-8-isopropylpyrazolo[1,5-a][1,3,5]triazin-4-amine] | –
< 5 nM | > 2500 nM | – | CC(C)Oc1ccccc1CNc1nc(OC2CCN(C)CC2)nc2c(C(C)C)cnn12 [(VII-66), N-(2-isopropoxybenzyl)-8-isopropyl-2-((1-methylpiperidin-4-yl)oxy)pyrazolo[1,5-a][1,3,5]triazin-4-amine] | –
< 5 nM | > 2500 nM | – | Cc1nccn1-c1ccccc1CNc1nc(O[C@@H]2CCNC2)nc2c(C(C)C)cnn12 [(VII-25), (R)-8-isopropyl-N-(2-(2-methyl-1H-imidazol-1-yl)benzyl)-2-(pyrrolidin-3-yloxy)pyrazolo[1,5-a][1,3,5]triazin-4-amine] | –
< 5 nM | > 2500 nM | – | CC(C)c1cnn2c(NCc3ccccc3-c3nnnn3C)nc(N3CCC4(CCCN4)CC3)nc12 [(VIII-18), 8-isopropyl-N-(2-(1-methyl-1H-tetrazol-5-yl)benzyl)-2-(1,8-diazaspiro[4.5]decan-8-yl)pyrazolo[1,5-a][1,3,5]triazin-4-amine] | –
5 to 10 nM | > 2500 nM | – | CC(C)c1cnn2c(NCc3ccccc3-n3cccn3)nc(N3CCC4(CCCNC4)C3)nc12 (stereo not shown) [(VIII-27), N-(2-(1H-pyrazol-1-yl)benzyl)-8-isopropyl-2-(2,7-diazaspiro[4.5]decan-2-yl)pyrazolo[1,5-a][1,3,5]triazin-4-amine] | –
< 5 nM | > 2500 nM | – | CC(C)c1cnn2c(N[C@@H](C)c3ccccc3Cl)nc(O[C@@H]3CCCNC3)nc12 [(VII-28), N-((S)-1-(2-chlorophenyl)ethyl)-8-isopropyl-2-((R)-piperidin-3-yloxy)pyrazolo[1,5-a][1,3,5]triazin-4-amine] | –
< 5 nM | > 2500 nM | – | CC(C)c1cnn2c(NCc3ccccc3-n3cccn3)nc(N3CCC4(CC3)CNC4)nc12 [(VIII-16), N-(2-(1H-pyrazol-1-yl)benzyl)-8-isopropyl-2-(2,7-diazaspiro[3.5]nonan-7-yl)pyrazolo[1,5-a][1,3,5]triazin-4-amine] | –
< 5 nM | 500 to 2500 nM | – | CC(C)c1cnn2c(NCc3ccccc3-n3ccnc3)nc(OC3CCNCC3)nc12 [(VII-19), N-(2-(1H-imidazol-1-yl)benzyl)-8-isopropyl-2-(piperidin-4-yloxy)pyrazolo[1,5-a][1,3,5]triazin-4-amine] | –
< 5 nM | – | 500 to 2500 nM | Cc1nccn1-c1ccccc1CNc1nc(O[C@@H]2CCCNC2)nc2c(C(C)C)cnn12 [(VII-23), (R)-8-isopropyl-N-(2-(2-methyl-1H-imidazol-1-yl)benzyl)-2-(piperidin-3-yloxy)pyrazolo[1,5-a][1,3,5]triazin-4-amine] | –
< 5 nM | > 2500 nM | – | CC(C)c1cnn2c(NCc3ccccc3-c3ccccc3)nc(OC3CCN(C)CC3)nc12 [(VII-57), N-([1,1′-biphenyl]-2-ylmethyl)-8-isopropyl-2-((1-methylpiperidin-4-yl)oxy)pyrazolo[1,5-a][1,3,5]triazin-4-amine] | IC50 ([1]; Table 6, read-out: IC50 CDK7): < 5 nM; Selectivity CDK7 over CDK9 ([2]; Table 6): 909 fold
5 to 10 nM | > 2500 nM | – | CC(C)c1cnn2c(NCc3ccccc3-n3cccn3)nc(N3CCC4(CCNCC4)CC3)nc12 [(VIII-26), N-(2-(1H-pyrazol-1-yl)benzyl)-8-isopropyl-2-(3,9-diazaspiro[5.5]undecan-3-yl)pyrazolo[1,5-a][1,3,5]triazin-4-amine] | –
< 5 nM | > 2500 nM | – | CC(C)c1cnn2c(NCc3ccccc3-n3cccn3)nc(N3CCC4(CCN4)CC3)nc12 [(VIII-20), N-(2-(1H-pyrazol-1-yl)benzyl)-8-isopropyl-2-(1,7-diazaspiro[3.5]nonan-7-yl)pyrazolo[1,5-a][1,3,5]triazin-4-amine] | –
< 5 nM | > 2500 nM | – | CC(C)c1cnn2c(NCc3ccccc3-c3cccnc3)nc(O[C@@H]3CCCNC3)nc12 [(VII-46), (R)-8-isopropyl-2-(piperidin-3-yloxy)-N-(2-(pyridin-3-yl)benzyl)pyrazolo[1,5-a][1,3,5]triazin-4-amine] | –
< 5 nM | > 2500 nM | – | CC(C)c1cnn2c(NCc3ccccc3-n3cccn3)nc(N3CCC34CCNC4)nc12 (stereo not shown) [(VIII-28), N-(2-(1H-pyrazol-1-yl)benzyl)-8-isopropyl-2-(1,6-diazaspiro[3.4]octan-1-yl)pyrazolo[1,5-a][1,3,5]triazin-4-amine] | –
